SMILES strings stand for the structures. Where two headings read alike, the source gives them in different places.

This note sets out measurements from US20240018161A1, “MODULATORS OF CYSTIC FIBROSIS TRANSMEMBRANE CONDUCTANCE REGULATOR” (VERTEX PHARMACEUTICALS INCORPORATED, priority 2020, published 2024).

The conditions of data set [1]: 13-membered ring, DMF.
For data set [2] the following is noted: 13-membered ring, DMF. This is another data set of the same source.
For data set [3], the target named is T1, CFTR-mediated chloride transport in human intestinal epithelial enteroid cells (Homo sapiens, UniProt P13569). Description: Membrane potential dye, Enteroid Assay B. The data set is classed as cell-based. The following applies: Enteroid Assay B; for EC50: read-out: Ent. B EC50. The gist of the method:
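Human intestinal enteroid cells were loaded for 25 min at room temperature with methyl oxonol membrane-potential dye plus […] (CaCCinh-A01, Chicago Sky Blue). They were then washed into chloride-free gluconate buffer. Chloride transport was triggered by stimulation solution and fluorescence read for 15 min.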

Data set [4] has as its target T1, CFTR-mediated chloride transport in human intestinal epithelial enteroid cells. Description: Membrane potential dye, Enteroid Assay A. The data set is classed as cell-based. The following applies: Enteroid Assay A; for EC50: read-out: Ent. A EC50. In a few lines: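 Membrane potential dye (20 μM methyl oxonol, with 30 μM CaCCinh-A01 and 30 μM Chicago Sky Blue) loaded 25 min at room temperature into ROCK-inhibitor-seeded human enteroid cells. Chloride-free stimulation buffer triggered transport, followed by 15 min fluorescence. % Activity relative to 3 μM/3 μM/300 nM triple-combination control.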

T1 sequence (P13569 with tags, fused parts or gaps DEL508-508): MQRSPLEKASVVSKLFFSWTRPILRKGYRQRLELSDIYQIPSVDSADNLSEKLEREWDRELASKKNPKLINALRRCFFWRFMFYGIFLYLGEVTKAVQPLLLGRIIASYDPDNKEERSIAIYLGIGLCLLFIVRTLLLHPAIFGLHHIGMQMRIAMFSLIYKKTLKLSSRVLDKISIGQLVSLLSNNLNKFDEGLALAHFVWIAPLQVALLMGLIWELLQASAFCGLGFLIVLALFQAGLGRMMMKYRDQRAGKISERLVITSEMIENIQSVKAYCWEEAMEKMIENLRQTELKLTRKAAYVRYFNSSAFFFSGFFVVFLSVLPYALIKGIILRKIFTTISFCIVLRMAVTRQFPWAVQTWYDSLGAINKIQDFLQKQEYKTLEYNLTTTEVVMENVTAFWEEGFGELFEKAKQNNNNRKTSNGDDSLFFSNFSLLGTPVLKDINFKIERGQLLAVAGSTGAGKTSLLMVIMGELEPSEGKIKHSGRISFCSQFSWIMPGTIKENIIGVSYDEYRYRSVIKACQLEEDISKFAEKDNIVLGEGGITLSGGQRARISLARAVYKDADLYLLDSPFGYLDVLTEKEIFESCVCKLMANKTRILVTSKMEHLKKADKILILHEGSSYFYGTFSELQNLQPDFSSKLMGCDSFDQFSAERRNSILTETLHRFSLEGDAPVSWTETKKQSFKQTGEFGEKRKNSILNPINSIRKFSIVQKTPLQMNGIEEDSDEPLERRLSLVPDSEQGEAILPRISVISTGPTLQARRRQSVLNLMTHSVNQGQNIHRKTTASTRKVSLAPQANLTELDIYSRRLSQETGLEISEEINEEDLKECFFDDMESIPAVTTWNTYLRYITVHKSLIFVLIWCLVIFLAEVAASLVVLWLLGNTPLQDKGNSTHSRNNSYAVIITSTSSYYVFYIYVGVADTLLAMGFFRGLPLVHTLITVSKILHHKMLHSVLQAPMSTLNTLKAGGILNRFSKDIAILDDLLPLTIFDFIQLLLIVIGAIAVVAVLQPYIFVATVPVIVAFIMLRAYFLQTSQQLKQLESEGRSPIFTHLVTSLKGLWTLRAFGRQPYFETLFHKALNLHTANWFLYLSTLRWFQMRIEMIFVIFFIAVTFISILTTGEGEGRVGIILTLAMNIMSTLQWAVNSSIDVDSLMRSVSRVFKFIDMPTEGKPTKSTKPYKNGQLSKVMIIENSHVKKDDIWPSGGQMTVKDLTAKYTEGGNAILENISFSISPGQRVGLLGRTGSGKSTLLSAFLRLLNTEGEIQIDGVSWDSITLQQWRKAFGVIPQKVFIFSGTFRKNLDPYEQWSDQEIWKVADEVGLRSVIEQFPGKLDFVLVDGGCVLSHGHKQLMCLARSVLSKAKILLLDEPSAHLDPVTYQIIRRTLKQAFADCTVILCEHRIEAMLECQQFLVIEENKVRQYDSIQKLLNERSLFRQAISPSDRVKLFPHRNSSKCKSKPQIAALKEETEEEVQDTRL

The molecule `Cc1cccc(C)c1-c1cc2nc(n1)NS(=O)(=O)c1cccc(c1)C(=O)N1C(c3ncc(OC(C)C)cn3)CCCC(CC(C)C)C1CO2` (stereo not shown) returned a ring closure, yield after HPLC in data set [1] (from Cc1cccc(C)c1-c1cc(OCC2NC(c3ncc(OC(C)C)cn3)CCCC2CC(C)C)nc(NS(=O)(=O)c2cccc(C(=O)O)c2)n1, amide bond, CDMT/NMM, 13.7 mM, 48.0 h, 2 steps) of 12%. The molecule also gave a ring closure, isolated yield in data set [2] (from Cc1cccc(C)c1-c1cc(OCC2NC(c3ncc(OC(C)C)cn3)CCCC2CC(C)C)nc(NS(=O)(=O)c2cccc(C(=O)O)c2)n1, amide bond, CDMT/NMM, 14.3 mM, 48.0 h, 2 steps) of 41%.

The molecule `Cc1cccc(C)c1-c1cc2nc(n1)NS(=O)(=O)c1cccc(c1)C(=O)N1CCN(Cc3ccccc3)CC(O2)C1CC(C)C` (stereo not shown) showed a ring closure, yield after HPLC in data set [1] (from Cc1cccc(C)c1-c1cc(Cl)nc(NS(=O)(=O)c2cccc(C(=O)N3CCN(Cc4ccccc4)CC(O)C3CC(C)C)c2)n1, snar bond, NaH, 15.2 mM, 25.0 °C, 24.0 h) of 11%. Also, in data set [2] (from Cc1cccc(C)c1-c1cc(Cl)nc(NS(=O)(=O)c2cccc(C(=O)N3CCN(Cc4ccccc4)CC(O)C3CC(C)C)c2)n1, snar bond, NaH, 15.6 mM, 25.0 °C, 23.0 h), the ring closure, isolated yield was 21%.

Turning to `Cc1cccc(C)c1-c1cc2nc(n1)NS(=O)(=O)c1cccc(c1)C(=O)N1CCc3cc(C(C)(C)C)ccc3C1CO2` (single isomer, unassigned) [Compound 235, 8-tert-butyl-17-(2,6-dimethylphenyl)-14-oxa-21λ^6-thia-3,18,20,27-tetraazapentacyclo[20.3.1.115,19.03,12.06,11]heptacosa-1(26),6(11),7,9,15(27),16,18,22,24-nonaene-2,21,21-trione], in data set [3], the “Ent. B Max Activity (%)” value was “++ (++ is 30-60%)” and the EC50 is < 1 µM. Moreover, in data set [2] (from Cc1cccc(C)c1-c1cc(OCC2NCCc3cc(C(C)(C)C)ccc32)nc(NS(=O)(=O)c2cccc(C(=O)O)c2)n1, amide bond, HATU/Et3N, 16.5 mM, 25.0 °C, 16.0 h), the ring closure, isolated yield was determined as 34%.

In data set [2] (from Cc1cccc(C)c1-c1cc(Cl)nc(NS(=O)(=O)c2cccc(C(=O)N3CCN(C(=O)OC(C)(C)C)[C@@H](CC(C)C)[C@H](O)C3)c2)n1, snar bond, NaH, 31.0 mM, 5.17 h), `Cc1cccc(C)c1-c1cc2nc(n1)NS(=O)(=O)c1cccc(c1)C(=O)N1CCN(C(=O)OC(C)(C)C)[C@@H](CC(C)C)[C@@H](C1)O2` [Compound 116, tert-Butyl (16R,17S)-12-(2,6-dimethylphenyl)-17-(2-methylpropyl)-2,8,8-trioxo-15-oxa-8λ^6-thia-1,9,11,18,22-pentaazatetracyclo[14.4.1.13,7.110,14]tricosa-3(23),4,6,10(22),11,13-hexaene-18-carboxylate] returned a ring closure, isolated yield of 36%. Further, in data set [4], the “Ent. A Max Activity (%)” value is “++ (++ is 30-60%)” and the EC50 was < 1 µM.

Take `Cc1cccc(C)c1-c1cc2nc(n1)NS(=O)(=O)c1cccc(c1)C(=O)N1C[C@@H](CN(C(=O)OC(C)(C)C)C[C@H]1C(C)C)O2` [Compound 124, tert-Butyl (16S,20R)-12-(2,6-dimethylphenyl)-2,8,8-trioxo-20-(propan-2-yl)-15-oxa-8λ^6-thia-1,9,11,18,22-pentaazatetracyclo[14.4.1.13,7.110,14]tricosa-3(23),4,6,10(22),11,13-hexaene-18-carboxylate]: the ring closure, isolated yield in data set [2] (from Cc1cccc(C)c1-c1cc(Cl)nc(NS(=O)(=O)c2cccc(C(=O)N3C[C@H](O)CN(C(=O)OC(C)(C)C)C[C@H]3C(C)C)c2)n1, snar bond, NaH, 30.5 mM, 3.17 h) came out at 35%. In data set [4], the “Ent. A Max Activity (%)” value was “+++ (+++ is >600%)” and the EC50 was < 1 µM.

Consider `Cc1cccc(C)c1-c1cc2nc(n1)NS(=O)(=O)c1cccc(c1)C(=O)N1C[C@@H](CN(C(=O)OC(C)(C)C)C[C@@H]1CCC(C)C)O2` [Compound 129, tert-Butyl (16S,20S)-12-(2,6-dimethylphenyl)-20-(3-methylbutyl)-2,8,8-trioxo-15-oxa-8λ^6-thia-1,9,11,18,22-pentaazatetracyclo[14.4.1.13,7.110,14]tricosa-3(23),4,6,10(22),11,13-hexaene-18-carboxylate], for which, in data set [2] (from Cc1cccc(C)c1-c1cc(Cl)nc(NS(=O)(=O)c2cccc(C(=O)N3C[C@H](O)CN(C(=O)OC(C)(C)C)C[C@@H]3CCC(C)C)c2)n1, snar bond, NaH, 29.8 mM, 3.67 h), the ring closure, isolated yield worked out at 53%. In data set [4], the “Ent. A Max Activity (%)” value was “++ (++ is 30-60%)” and the EC50 is < 1 µM.

`Cc1cccc(C)c1-c1cc2nc(n1)NS(=O)(=O)c1cccc(c1)C(=O)N1C[C@@H](CN(C(=O)OC(C)(C)C)C[C@@H]1C(C)C)O2` [Compound 132, tert-Butyl (16S,20S)-12-(2,6-dimethylphenyl)-2,8,8-trioxo-20-(propan-2-yl)-15-oxa-8λ^6-thia-1,9,11,18,22-pentaazatetracyclo[14.4.1.13,7.110,14]tricosa-3(23),4,6,10(22),11,13-hexaene-18-carboxylate] returned a ring closure, isolated yield in data set [2] (from Cc1cccc(C)c1-c1cc(Cl)nc(NS(=O)(=O)c2cccc(C(=O)N3C[C@H](O)CN(C(=O)OC(C)(C)C)C[C@@H]3C(C)C)c2)n1, snar bond, NaH, 29.4 mM, 3.17 h) of 46%. Moreover, in data set [4], the “Ent. A Max Activity (%)” value is “++ (++ is 30-60%)” and the EC50 is < 1 µM.

In data set [2] (from Cc1cccc(C)c1-c1cc(O[C@H]2CN[C@@H](CC(C)(C)C)CN(C(=O)OC(C)(C)C)C2)nc(NS(=O)(=O)c2cccc(C(=O)O)c2)n1, amide bond, HATU/DIEA, 29.2 mM, 25.0 °C, 0.33 h), `Cc1cccc(C)c1-c1cc2nc(n1)NS(=O)(=O)c1cccc(c1)C(=O)N1C[C@@H](CN(C(=O)OC(C)(C)C)C[C@@H]1CC(C)(C)C)O2` [Compound 134, tert-Butyl (16S,20S)-12-(2,6-dimethylphenyl)-20-(2,2-dimethylpropyl)-2,8,8-trioxo-15-oxa-8λ^6-thia-1,9,11,18,22-pentaazatetracyclo[14.4.1.13,7.110,14]tricosa-3(23),4,6,10(22),11,13-hexaene-18-carboxylate] gave a ring closure, isolated yield of 57%. Moreover, in data set [4], the “Ent. A Max Activity (%)” value is reported as “++ (++ is 30-60%)” and the EC50 was < 1 µM.

In data set [2] (from Cc1cccc(C)c1-c1cc(Cl)nc(NS(=O)(=O)c2cccc(C(=O)N3CC4CN(Cc5ccccc5)CC4(O)C3)c2)n1, snar bond, NaH, 33.1 mM, 25.0 °C, 24.0 h), `Cc1cccc(C)c1-c1cc2nc(n1)NS(=O)(=O)c1cccc(c1)C(=O)N1CC3CN(Cc4ccccc4)CC3(C1)O2` (stereo not shown) [Compound 210, 20-Benzyl-5-(2,6-dimethylphenyl)-2-oxa-9λ^6-thia-6,8,16,20,24-pentaazapentacyclo[14.5.1.13,7.110,14.01,18]tetracosa-3(24),4,6,10,12,14(23)-hexaene-9,9,15-trione] yielded a ring closure, isolated yield of 26%. Besides, in data set [4], the “Ent. A Max Activity (%)” value was “+++ (+++ is >600%)” and the EC50 was < 1 µM.

Consider `Cc1cccc(C)c1-c1cc2nc(n1)NS(=O)(=O)c1cccc(c1)C(=O)N1C[C@@H](CCC1CC(C)C)O2` (stereo partly drawn) [Compound 234, (3R)-18-(2,6-Dimethylphenyl)-6-(2-methylpropyl)-2-oxa-14λ^6-thia-7,15,17,20-tetraazatetracyclo[14.3.1.13,7.19,13]docosa-1(20),9(21),10,12,16,18-hexaene-8,14,14-trione], for which, in data set [3], the “Ent. B Max Activity (%)” value was “+++ (+++ is >600%)” and the EC50 was < 1 µM. This molecule showed a ring closure, isolated yield in data set [2] (from Cc1cccc(C)c1-c1cc(Cl)nc(NS(=O)(=O)c2cccc(C(=O)N3C[C@H](O)CCC3CC(C)C)c2)n1, snar bond, NaH, 11.6 mM, 25.0 °C, 16.0 h) of 38%.

One may read the EC50 as the concentration at which the effect is half-maximal.
